Test results taken from patent publication US20240350669A1, “INHIBITION OF KYNURENINE SYNTHESIS AND/OR SIGNALING TO TREAT LEUKEMIA AND MYELODYSPLASIA” (THE TRUSTEES OF COLUMBIA UNIVERSITY IN THE CITY OF NEW YORK, priority 2022, published 2024).

What was measured:
[1] = Systemic toxicity observation in WT mice on epacadostat diet; type: in vivo; conditions: ad libitum diet 0.8 g/kg
Method: (§1) Epacadostat (AdooQ Cat #A15554)-treatment: for the WT C57BL/6J mice, treatment started at the same time than MLL/AF9 cells were transplanted. For the patient-derived AML cells (PDX) transplanted into NSG mice, treatment started 8 weeks after transplant, at the same time than Ara-C and during 3 weeks. Mice were supplied with ad libitum epacadostat-supplemented diet (Research Diets Inc.) at 800 mg/kg (low-dose) or 1.6 g/kg (high-dose). For the PDX transplanted into NSGS mice, treatment started 3 weeks after transplant, by daily gavage at 300 mg/kg (InvivoChem Cat #: V0942, dissolved in 10% DMSO, 40% PEG 300 and 50% NaCl 0.9%) for 2 weeks.

[2] = test system: patient-derived AML cells; assay: Patient-derived AML xenograft in NSG mice, epacadostat chow and/or Ara-C; type: in vivo, mouse
Method: as §1
For the combination therapy (Epacadostat+chemotherapy) performed at the University of Pennsylvania, patient-derived AML cells were transplanted as previously reported (48). Briefly 6 weeks old NSG males were sublethally treated with busulfan (30 mg/kg) 24 h before transplant and 5×10^6 patient-derived AML cells were injected i.v. Engraftment was assessed, and mice were randomized at 7.5 weeks by BM aspirate as previously described. Randomized mice were treated with vehicle, cytosine arabinoside (Ara-C, 60 mg/kg/day×5 days i.p.), epacadostat chow (1.6 g/kg ad libitum) or both Ara-C and epacadostat chow for 3 weeks.

IDO1 [3] = assay: Epacadostat in vitro: kynurenine secretion and cell cycle progression; type: cell-based
[4] = test system: patient-derived AML cells; assay: Patient-derived AML xenograft (PDX) in NSGS mice, epacadostat daily gavage; type: in vivo, mouse; conditions: daily gavage 300 mg/kg
Method: as §1
(§2) 4-6 weeks old NSG (CDX model) or NSGS (PDX model) mice were pre-conditioned with sublethal (1.4 Gy) total-body irradiation. 24 h after, 1×10^6 OCI-AML3 or 2×10^5 human BM CD34^+ (healthy) or primary AML patient samples were injected i.v. Engraftment levels were monitored and mice were randomized after BM aspiration 3-4 weeks later and immunophenotyped by the presence of mCD45 (BioLegend Cat #103133, RRID: AB_10899570), hCD45 (BioLegend Cat #368512, RRID: AB_2566372), hCD33 (BioLegend Cat #303404, RRID: AB_314348), hCD34 (BioLegend Cat #343518, RRID: AB_1937203) cell populations. For the low-burden PDX model (kynurenine injections), mice were treated 1 week after transplant.
(§3) Quantification in serum from peripheral blood (mice) or BM plasma (patients) of Kyn and Trp was assessed by ELISA using independent kits (ImmunoSmol) as per manufacturer's instructions. The ratio between Kyn and Trp levels is shown. SAA3 in serum (murine SAA3 ELISA Kit Millipore) and SAA1 in patient BM plasma (Amyloid A1 DuoSet ELISA Kit (R&D) were assessed as per manufacturer's instructions.
(§4) Cell labelling was done by i.p. injection of mice with 50 mg/kg of freshly prepared 5-Ethynyl-2′-deoxyuridine-Edu-(Cayman Chemical Company Cat #20518). After 3-4 h, BM was harvested, and human cells were negatively selected by mouse cell depletion using mouse CD45 magnetic beads (Miltenyi). The human BM cells were then stained CD45 and CD33 to identify the leukemic blast. Cell cycle/proliferation analysis was performed using the Click-iT Plus EdU Flow Cytometry Assay Kit (Invitrogen, Cat #C10420) following manufacturers' instructions. Fixable viability dye (Biolegend) was used to discriminate the death population. Single color controls were used to set compensations and fluorescence minus one control were used to set gates. Analysis was performed with FlowJo software.

IDO1 [5] = assay: Circulating Kyn and Trp levels (ELISA) in WT mice on epacadostat diet; type: in vivo, mouse
Method: as §1, §3

MLL/AF9 AML cells = assay: MLL/AF9 syngeneic leukemia model in non-irradiated WT mice; type: in vivo, mouse
Method: PTH bone-anabolic treatment: mice were injected intraperitoneally (i.p.) with PTH (Bachem) at 80 μg/kg/day in PBS. Injections started 1 week before MLL/AF9 injection and continued along 2-3 more weeks until mice were harvest.
SB224289-SB9-(TOCRIS Cat #1221) treatment: mice were injected intraperitoneally (i.p.) daily with SB9 (5 mg/kg in 0.9% NaCl) 1 week after leukemia injection and for the duration of the experiment. Assuming a 20 g body weight (BW) and a 2 ml total blood volume per mouse—as well as an even distribution of the drug-systemic concentration of SB9 should be approximately 50 μg/ml. Based on the MW of SB9 (557.09), the final concentration—at equal distribution—in blood should be 8.97521e-05 M (≈90 μM).
as §1
All leukemia models were introduced by intravenous (i.v.) injection and transplanted into non-irradiated secondary recipient experimental animals. BALB/c mice were used for the WEHI-3B leukemia model (0.5×10^6/cells/mouse) and C57BL/6J mice for MLL/AF9-dsRed (0.2×10^6/cells/mouse). Leukemia progression was assessed by fluorescence (MLL/AF9 dsRed) using the IVIS-Spectrum Optical Imaging System (Caliper, Perkin Elmer). Mice were shaved to reduce light attenuation.

OCI-AML3 cells = assay: IDO1 mRNA in OCI-AML3 cells exposed to recombinant osteoblast-secreted molecules; type: cell-based, human; conditions: o/n treatment, 50 ng/ml
Method: (§5) Treatments with recombinant proteins: human IL-1α, IL-1β, IL-6, IL-33, IL-34, CXCL1, CXCL3, CXCL5, CXCL8, CCL2, CCL20, Apo-SAA1 (all from Peprotech) and recombinant mouse SAA3 (Cusabio) were performed by o/n treatment with 50 ng/ml of the corresponding protein. SAA1 treatment of human AML cell lines was done with 1 μg/ml for 24, 48 or 72 h. Treatment of primary human MDS or AML lineage-depleted BM-MNCs was done with 5 μg/ml for 24 h. Treatment of PDX isolated human total BM cells was done with 1 μg/ml for 24 h.
(§6) RNA isolation, cDNA preparation and real-time PCR analyses were carried out following standard protocols. Total RNA from cortical bone (clean, flushed femurs, were centrifugated 20 seconds at 10.000 g's to remove any remaining BM) was extracted using TRIzol (Invitrogen) followed by RNA clean-up using PureLink RNA Mini Kit (Ambion, Invitrogen). mRNA was reversed transcribed using random hexamers RNA-to-cDNA kit (Takara). Specific forward and reverse primers were used in conjunction with PowerUp SYBR Green Master Mix (Applied Biosystems) for quantitative PCR. Expression levels were analyzed using the 2^−ΔΔCt method and were normalized for the expression of the housekeeping gene Hprt unless otherwise stated.

[6] = test system: leukemic blasts (hCD45+CD33+); assay: In vivo SAA1 treatment of PDX mice, Edu cell cycle analysis of leukemic blasts; parameters: species or system mouse
Method: SAA1 (Peprotech Cat #300-53) treatment: for short-term treatment (2 days), mice were injected intra venous (i.v.) 72 h and 48 h before harvesting. For long-term treatment (8-days), mice received daily i.v. injections. In order to get the same SAA1 concentration in blood that the one used in vitro, we used a dosage of 100 μg/kg of SAA1, diluted in 0.9% NaCl. Assuming a 20 g body weight, 2 ml total blood volume, and an even distribution in the mouse, systemic concentration of SAA1 should be approximately 1 μg/ml.
as §2, §4

WEHI-3B cells = assay: Ido1 mRNA in WEHI-3B cells exposed to recombinant SAA; type: cell-based, mouse; conditions: o/n treatment
Method: as §5, §6

AML and MDS BM MNCs = assay: Ex vivo lineage-depleted AML and MDS patient BM MNCs exposed to SAA1; type: cell-based, human; conditions: SAA1 5 μg/ml, 24 h
Method: as §5
(§7) Cell proliferation was performed by using Cell Counting Kit 8 (WST-8, Abcam) as per manufacturer's instructions. Briefly, 0.03×10^6 cells were seeded on tissue-culture clear bottom microplates (Corning) in their corresponding media (100 μl). When indicated, cells were treated with the indicated compounds and for the indicated time points. 10 μl/well of WST-8 solution was added and incubated for 2 h at 37° C. before measuring absorbance at 460 nm. For each experiment, the absorbance of the blank wells (growth media and vehicle/treatment) was subtracted from the values for those wells with cells.
Ex vivo primary AML and MDS patient's samples: MNCs from fresh BM patients' aspirates were isolated as previously described and depleted from mature hematopoietic cells (lineage Cell Depletion Kit, Miltenyi Biotec Cat #130-092-211). […]

[7] = test system: human AML and MDS cell lines; assay: mRNA levels in human AML and MDS cell lines exposed to SAA1; type: cell-based
Method: as §5, §6

[8] = test system: human BM cells from PDX healthy or PDX AML mice; assay: Ex vivo total human BM cells isolated from PDX mice exposed to SAA1; type: cell-based; conditions: SAA1 1 μg/ml, 24 h
Method: as §5, §7
Ex vivo xenografts (healthy CD34^+ versus patient-derived AML): total BM from NSGS mice was depleted of mouse cells with mouse CD45 magnetic beads (Miltenyi Biotec Cat #130-052-301, RRID: AB_2877061) and negatively selected human cells used.

human AML cell lines = assay: WST-8 proliferation of human AML cell lines exposed to SAA1; type: cell-based; conditions: SAA1 1 μg/ml, 24-72 h, versus vehicle
Method: as §5, §7
In vitro: the indicated cell lines were incubated in reduced-serum media and exposed to SAA1 (1 μg/ml) for the 24-72 h as indicated.

WEHI-3B = assay: WST-8 proliferation of mouse WEHI-3B AML cells exposed to SAA3; type: cell-based; conditions: SAA3 1 μg/ml, 24-72 h, versus vehicle
[9] = day 22 after initiating therapy, Ara-C 60 mg/kg/day x 5 days, epacadostat chow 1.6 g/kg 3 weeks
[10] = SAA1 i.v., 2- and 8-day treatments

NS(=O)(=O)NCCNc1nonc1C(=NO)Nc1ccc(F)c(Br)c1 [epacadostat]
systemic toxicity [1]: did not show any obvious systemic toxicity | leukemia burden in both the bone marrow and spleen ([2]; AML patient-derived xenograft models, summary statement): significantly decreases leukemia burden | leukemic burden in BM [2, 9]: decreased leukemic burden | leukemic burden in spleen [2, 9]: more pronounced effect in the spleen | cell cycle progression (IDO1 [3]): impaired | kynurenine secretion (IDO1 [3]): abrogated | G0-G1 and G2-M populations of leukemic blasts [4]: remained unchanged | leukemic blasts apoptosis [4]: increased leukemic blasts apoptosis | reduction in Kyn/Trp levels in blood ([4]; 12 days): ~20% | reduction in AML BM burden ([4]; 12 days, versus vehicle): ~20% | proliferation of leukemic blasts (hCD45+CD33+) ([4]; in vivo cell cycle): less proliferative | reduction in serum Kyn levels (IDO1 [5]; MLL/AF9-injected mice, diet 1.6 g/kg): 35% | effect on the 1.5-fold-increase in systemic Kyn/Trp levels of MLL/AF9 leukemic mice (IDO1 [5]; MLL/AF9 leukemic mice, diet 0.8 g/kg): did not reduce | reduction in basal circulating Kyn/Trp levels (IDO1 [5]; no leukemia, ad libitum diet 0.8 g/kg): 54% | reduction in circulating kynurenine and tryptophan levels (IDO1 [5]; wild type mice, dose not stated): 41% | survival (MLL/AF9 AML cells; AML-injected mice, dose not stated): increases in survival | leukemia progression (MLL/AF9 AML cells; epacadostat diet 0.8 g/kg): tendency towards a slower leukemia progression | survival (MLL/AF9 AML cells; epacadostat diet 0.8 g/kg): slight-yet significant-increase in survival | AML burden (MLL/AF9 AML cells; epacadostat diet 1.6 g/kg): significant delay in AML burden | survival (MLL/AF9 AML cells; epacadostat diet 1.6 g/kg, compared to the lower dose): significantly prolonged survival

B1: SAA1: recombinant human acute-phase protein serum amyloid A1 (Peprotech) (protein, UniProt P0DJI8 19-122, looked up)
Serum amyloid A-1 protein: RSFFSFLGEAFDGARDMWRAYSDMREANYIGSDKYFHARGNYDAAKRGPGGAWAAEVITDARENIQRFFGHGAEDSLADQAANEWGRSGKDPNHFRPAGLPEKY
IDO1 expression in OCI-AML3 leukemic cells (OCI-AML3 cells): able to upregulate IDO1 expression | % of Sub-G1 apoptotic cells ([6]; 8-day treatment): reduced | proliferative rate of leukemic blasts (Edu+ cells, S-phase) ([6]; SAA1 100 μg/kg i.v., 2- and 8-day treatments): maintained and prominent increase | G0-G1 cells [6, 10]: decrease | G2-M phase [6, 10]: unvarying | increase in AML burden in the BM ([6]; completion of the 8-day treatment): 1.5 fold | Ido1 expression in WEHI-3B cells (WEHI-3B cells): able to upregulate Ido1 expression | IDO1 mRNA levels in patient-derived BM MNCs (AML and MDS BM MNCs): increased | proliferation of lineage-depleted AML and MDS BM MNCs (AML and MDS BM MNCs): promoted proliferation | IDO1 expression across human AML cell lines and MDS-L ([7]; SAA1): observed across several human AML cell lines as well as the MDS-L cell line | expression of AHR target genes ([7]; SAA1 1 μg/ml o/n): upregulated most of the main AHR targets genes | proliferation of human cells from CD34+ healthy-injected mice [8]: unresponsive | proliferation of patient-derived cells from AML-injected mice ([8]; versus vehicle): high proliferative activity | CYP1A1 and CYP1A2 gene expression ([8]; PDX-AML versus CD34+ healthy-injected mice): only upregulated in response to SAA1 in the human BM cells isolated from the PDX-AML | IDO1 expression ([8]; PDX-AML versus PDX healthy cells): only upregulated in response to SAA1 in the PDX-AML isolated human cells | proliferation of AML cell lines (human AML cell lines): increased proliferation

B2: SAA3: recombinant mouse SAA3 (Cusabio), murine orthologue of SAA1 (protein, UniProt P04918 19-122, looked up)
Serum amyloid A-3 protein: QRWVQFMKEAGQGSRDMWRAYSDMKKANWKNSDKYFHARGNYDAARRGPGGAWAAKVISDAREAVQKFTGHGAEDSRADQFANEWGRSGKDPNHFRPAGLPKRY
Ido1 expression in WEHI-3B cells (WEHI-3B cells): upregulated Ido1 expression | proliferation of AML cell lines (WEHI-3B): increased proliferation
